Assay [1] concerns the target T1, NSD2 (Homo sapiens, UniProt O96028).
T1 construct: purchased DiscoverX BROMOscan (bromodomains); SGC in-house methyltransferase panel
T1 sequence (O96028 1-1365): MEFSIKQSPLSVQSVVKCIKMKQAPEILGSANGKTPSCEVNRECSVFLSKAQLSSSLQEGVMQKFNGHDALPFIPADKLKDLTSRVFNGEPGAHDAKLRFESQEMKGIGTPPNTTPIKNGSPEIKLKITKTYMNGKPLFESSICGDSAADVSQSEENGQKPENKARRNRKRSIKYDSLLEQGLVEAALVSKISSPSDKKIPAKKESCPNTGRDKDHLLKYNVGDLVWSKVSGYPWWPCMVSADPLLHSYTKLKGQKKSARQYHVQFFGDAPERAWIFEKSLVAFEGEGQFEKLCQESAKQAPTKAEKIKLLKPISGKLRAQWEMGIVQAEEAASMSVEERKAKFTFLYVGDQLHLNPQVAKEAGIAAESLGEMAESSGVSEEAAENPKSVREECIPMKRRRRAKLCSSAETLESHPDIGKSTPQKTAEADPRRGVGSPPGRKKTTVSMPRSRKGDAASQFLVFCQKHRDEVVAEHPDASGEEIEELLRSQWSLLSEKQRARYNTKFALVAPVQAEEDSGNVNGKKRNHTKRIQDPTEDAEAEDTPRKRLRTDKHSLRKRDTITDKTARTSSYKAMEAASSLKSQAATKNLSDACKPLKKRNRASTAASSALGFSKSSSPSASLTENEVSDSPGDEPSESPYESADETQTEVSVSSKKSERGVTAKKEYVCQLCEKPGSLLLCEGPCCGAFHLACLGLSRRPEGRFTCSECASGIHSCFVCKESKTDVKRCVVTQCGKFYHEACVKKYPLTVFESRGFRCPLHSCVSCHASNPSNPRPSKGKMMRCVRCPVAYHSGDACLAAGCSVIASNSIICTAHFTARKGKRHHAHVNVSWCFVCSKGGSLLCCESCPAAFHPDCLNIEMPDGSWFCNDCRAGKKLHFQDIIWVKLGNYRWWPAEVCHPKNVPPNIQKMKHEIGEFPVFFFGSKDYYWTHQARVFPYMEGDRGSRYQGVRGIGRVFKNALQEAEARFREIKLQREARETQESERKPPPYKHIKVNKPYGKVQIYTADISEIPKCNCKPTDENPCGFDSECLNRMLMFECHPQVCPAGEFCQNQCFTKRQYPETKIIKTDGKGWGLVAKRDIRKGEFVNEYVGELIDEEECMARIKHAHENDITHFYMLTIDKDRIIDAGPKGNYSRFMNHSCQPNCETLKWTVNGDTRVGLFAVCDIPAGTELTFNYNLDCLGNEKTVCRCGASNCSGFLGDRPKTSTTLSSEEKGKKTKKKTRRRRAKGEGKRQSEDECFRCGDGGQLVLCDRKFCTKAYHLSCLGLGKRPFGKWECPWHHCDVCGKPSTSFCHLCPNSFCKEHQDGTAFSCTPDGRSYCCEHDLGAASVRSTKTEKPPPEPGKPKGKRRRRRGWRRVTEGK
Nature of the assay: Methyl transferase scintillation proximity assay. In kind it is biochemical. As to conditions: average of two measurements; for inhibition at 10 µM: read-out: MTases Inhibition (%). The protocol: (§1) Assays measuring lysine and arginine methyl transferase activity have been described in Scheer et al.. A radioactivity-based scintillation proximity assay was used to monitor incorporation of a tritium-labeled methyl group into the biotinylated substrate of the methyl transferase. A 10-μl reaction containing ^3H-SAM and substrate at concentrations close to the apparent Km values for each enzyme was prepared. The reactions were quenched with 10 μl of 7.5 M guanidine hydrochloride; 180 μl of 20 mM Tris buffer (pH 8.0) were added; and the mixture was transferred to a 96-well FlashPlate and incubated for 1 h. The counts per minute (CPM) was measured on a TopCount plate reader. The CPM in the absence of compound or enzyme was defined as 100% activity and background (0%), respectively, for each dataset.
(In general: SPA uses beads or plates that emit light when radiolabelled molecules are held near them.)

For assay [2], the target named is T2, NSD3 (Homo sapiens, UniProt Q9BZ95).
T2 construct: purchased DiscoverX BROMOscan (bromodomains); SGC in-house methyltransferase panel
T2 sequence (Q9BZ95 1-1437): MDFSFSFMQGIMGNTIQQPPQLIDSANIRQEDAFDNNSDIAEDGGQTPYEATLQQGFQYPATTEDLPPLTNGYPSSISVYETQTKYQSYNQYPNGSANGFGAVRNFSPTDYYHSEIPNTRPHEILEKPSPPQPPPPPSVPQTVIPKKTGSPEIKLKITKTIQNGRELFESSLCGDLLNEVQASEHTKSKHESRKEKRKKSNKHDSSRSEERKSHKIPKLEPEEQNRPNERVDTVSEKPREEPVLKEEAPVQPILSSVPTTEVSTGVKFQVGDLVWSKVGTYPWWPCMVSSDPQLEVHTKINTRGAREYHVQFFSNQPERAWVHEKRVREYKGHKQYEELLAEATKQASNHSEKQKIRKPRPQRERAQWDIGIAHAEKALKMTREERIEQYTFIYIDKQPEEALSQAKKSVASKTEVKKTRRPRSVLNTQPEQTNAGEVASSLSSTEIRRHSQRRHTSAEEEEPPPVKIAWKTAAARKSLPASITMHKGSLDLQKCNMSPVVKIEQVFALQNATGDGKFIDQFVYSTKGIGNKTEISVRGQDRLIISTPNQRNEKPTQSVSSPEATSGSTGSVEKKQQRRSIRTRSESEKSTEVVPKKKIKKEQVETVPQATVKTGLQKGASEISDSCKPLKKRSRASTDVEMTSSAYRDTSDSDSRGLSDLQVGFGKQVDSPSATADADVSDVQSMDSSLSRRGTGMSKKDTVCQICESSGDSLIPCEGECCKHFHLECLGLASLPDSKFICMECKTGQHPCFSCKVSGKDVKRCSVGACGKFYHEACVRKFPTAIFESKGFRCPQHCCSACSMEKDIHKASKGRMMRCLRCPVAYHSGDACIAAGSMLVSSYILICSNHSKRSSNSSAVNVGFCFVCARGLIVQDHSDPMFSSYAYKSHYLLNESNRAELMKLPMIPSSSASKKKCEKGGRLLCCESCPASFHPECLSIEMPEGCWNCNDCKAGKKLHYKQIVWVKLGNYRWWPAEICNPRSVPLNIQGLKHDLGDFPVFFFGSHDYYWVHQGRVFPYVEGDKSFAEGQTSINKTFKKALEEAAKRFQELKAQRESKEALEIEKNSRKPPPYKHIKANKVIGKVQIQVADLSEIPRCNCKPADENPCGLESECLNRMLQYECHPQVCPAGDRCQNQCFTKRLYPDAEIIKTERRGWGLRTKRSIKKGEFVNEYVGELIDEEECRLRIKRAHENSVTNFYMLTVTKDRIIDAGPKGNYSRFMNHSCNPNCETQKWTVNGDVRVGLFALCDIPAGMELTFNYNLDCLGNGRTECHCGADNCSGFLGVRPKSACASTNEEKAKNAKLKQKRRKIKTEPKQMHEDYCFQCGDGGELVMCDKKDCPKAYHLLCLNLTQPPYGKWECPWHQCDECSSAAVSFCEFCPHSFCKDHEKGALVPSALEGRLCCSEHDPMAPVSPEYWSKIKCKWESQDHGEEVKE
Nature of the assay: Methyl transferase scintillation proximity assay. In kind it is biochemical. As to conditions: average of two measurements; for inhibition at 10 µM: read-out: MTases Inhibition (%). The protocol:
as §1

As usually defined, the inhibition is the change of the read-out against control, counted positive when it falls.

Take `Cc1c(NC(=O)c2cc(C(N)=O)nc3cc(F)ccc23)c(C(F)(F)F)nn1Cc1ccc(C(C)(C)C)cc1` [BAY-588]: the inhibition at 10 µM in assay [1] is 2%; in assay [2], -2%.

Take `COc1cc(Cl)c(C(=O)N[C@@H](CN[C@H]2CC[C@@H](N)CC2)Cc2ccc(C#N)cc2)cc1-c1ccc(CN[C@H](C)c2ccc(C)cc2)o1` [BAY-850]: the values for the inhibition at 10 µM in assay [1] and in assay [2] were -1% and 14%, respectively.

Take `Cc1c(NC(=O)c2cc(C(N)=O)nc3cc(F)ccc23)c(C(F)(F)F)nn1Cc1ccc(C#N)cc1` [BAY-876]: the inhibition at 10 µM worked out at 0% in assay [1] and 3% in assay [2].

With `CN1C[C@H](Nc2cnn(C)c(=O)c2Br)C[C@H](c2ccccc2)C1` [GSK4027], the inhibition at 10 µM worked out at 15% in assay [1] and 10% in assay [2].

For the compound `COc1ccccc1C(=O)Nc1cc2c(cc1N1CCNC[C@H]1C)n(C)c(=O)n2C` [GSK6853], the “MTases Inhibition (%)” value is 13% in assay [1] (10µM) and 7% in assay [2] (10µM).

As for `CO[C@H]1CNC[C@@H](OCC2CCC(F)(F)CC2)[C@@H]1Nc1ncc(-c2cncc(C)c2)c2cc(C)c(=O)[nH]c12` [GSK8814], the inhibition at 10 µM in assay [1] is 24%; in assay [2] it was 13%.

Consider `Cc1nnc2c3ccccc3c(N[C@@H](C)[C@H](c3ccccc3)N(C)C)nn12` [L-Moses], for which the inhibition at 10 µM in assay [1] was found to be 2%; in assay [2], 5%.

Regarding `CN(C)CCCOc1ccc(-c2cc(NCCCn3cccn3)nc(S(C)(=O)=O)n2)cc1` [TP-238], the inhibition at 10 µM in assay [1] worked out at 3%; in assay [2], 15%.

These data come from PMC6478789, “A chemical toolbox for the study of bromodomains and epigenetic signaling” (Nature Communications, 2019).
